Reference: US9987276B2 (Celgene CAR LLC, priority 2008, dated 2018)
pIC50: −log10 of the molar value. “Also recorded” adds a separate entry of the source.

How the values were obtained:
[1] = biological target: T1, BTK (Homo sapiens (Human), UniProt Q06187); assay: Washout experiment with Ramos cells; type: cell-based; settings: 100 nM compound for 1 hour, then washout
Procedure: Ramos cells were serum starved for one hour in RPMI media+1% glutamine at 37° C. After starvation, Ramos cells were treated with 100 nM compound diluted in serum free RPMI media for 1 hour. After compound treatment, the media was removed and cells were washed with compound-free media. Subsequently, Ramos cells were washed every 2 hours and resuspended in fresh compound-free media. Cells were collected at specified timepoints, treated with 1 ug anti-human IgM (Southern Biotech cat #2022-01) for 10 minutes on ice to induce BCR signaling and then washed in PBS. Ramos cells were then lysed in Cell Extraction Buffer (Invitrogen FNN0011) supplemented with Roche complete protease inhibitor tablets (Roche 11697498001) and phosphatase inhibitors (Roche 04 906 837 001) and 18 ug total protein lysate was loaded in each lane. Inhibition of BTK kinase activity was assayed by measuring its substrate (PLCγ2) phosphorylation by western blot with phospho-specific antibodies from Cell Signaling Technologies cat #3871. The results of this experiment with compounds I-2, I-4 and I-7 are depicted in FIGS. 1, 2 and 3.

[2] = biological target: TEC kinase (Homo sapiens (Human), UniProt P42680); assay: Mass spectrometry for TEC kinase (tryptic digest); type: binding; settings: 3 hrs at 10× excess
Chain of TEC kinase (P42680 whole entry): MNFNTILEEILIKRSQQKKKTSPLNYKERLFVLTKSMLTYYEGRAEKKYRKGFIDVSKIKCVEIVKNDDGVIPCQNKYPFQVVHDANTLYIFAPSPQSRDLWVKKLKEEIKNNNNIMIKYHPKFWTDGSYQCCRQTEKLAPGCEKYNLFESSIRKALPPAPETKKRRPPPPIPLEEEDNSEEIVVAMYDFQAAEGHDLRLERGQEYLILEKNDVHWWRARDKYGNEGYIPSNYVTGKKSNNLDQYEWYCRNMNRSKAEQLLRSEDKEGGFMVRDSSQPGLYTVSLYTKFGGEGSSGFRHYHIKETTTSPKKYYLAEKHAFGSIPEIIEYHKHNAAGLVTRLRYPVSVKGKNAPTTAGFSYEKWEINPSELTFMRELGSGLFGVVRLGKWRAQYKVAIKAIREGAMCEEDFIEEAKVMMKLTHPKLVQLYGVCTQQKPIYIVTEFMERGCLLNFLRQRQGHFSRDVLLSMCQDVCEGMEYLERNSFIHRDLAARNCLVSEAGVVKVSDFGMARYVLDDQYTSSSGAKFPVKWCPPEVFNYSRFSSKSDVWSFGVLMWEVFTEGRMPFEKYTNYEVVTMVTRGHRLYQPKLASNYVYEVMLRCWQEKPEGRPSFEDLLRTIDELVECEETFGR
Procedure: TEC kinase (45 pmols; Invitrogen) was incubated with (I-2) (450 pmols) for 3 hrs at 10× excess prior to tryptic digestion. Iodoacetamide was used as the alkylating agent after compound incubation. […] For tryptic digests a 5 ul aliquot (7.5 pmols) was diluted with 15 ul of 0.1% TFA prior to micro C18 Zip Tipping directly onto the MALDI target using alpha cyano-4-hydroxy cinnamic acid as the matrix (5 mg/ml in 0.1% TFA:Acetonitrile 50:50).
As depicted in FIG. 6, the expected peptide ([…]) to be modified was immediately evident after reaction with I-2 (MI mass of 359.17 Da) at MH+ of 1294.72. The peptide was also quite evident in the control sample as modified by Iodacetamide at MH+ of 992.56. […] There was no evidence of other modified peptides.
The fragmentation spectra of the 360.17 peak did show diagnostic fragments that were apparent in the PSD spectra of the modified peptide at 1294.72 (See FIG. 6).
To further verify the presence of the modified peptides, both the iodoacetamide labeled (992.56) and I-2 labeled (1294.72) were subjected to PSD (MS/MS) analysis. After a database search of the NCBI nr Homo sapien database using Mascot MS/MS Ion Search program the top match was the expected peptide in both cases.
For tryptic digests the instrument was set in Reflectron mode with a pulsed extraction setting of 2200. Calibration was done using the Laser Biolabs Pep Mix standard ([…], 1296.69, 1672.92, 2093.09, 2465.20). For CID/PSD analysis the peptide was selected using cursors to set ion gate timing and fragmentation occurred at a laser power about 20% higher and He was used as the collision gas for CID. Calibration for fragments was done using the P14R fragmentation calibration for the Curved field Reflectron.
TEC kinase (45 pmols; Invitrogen) was incubated with (I-4) (450 pmols) for 3 hrs at 10× excess prior to tryptic digestion. Iodoacetamide was used as the alkylating agent after compound incubation. […]

[3] = biological target: ITK (Homo sapiens (Human), UniProt Q08881); assay: Omnia assay for potency assessment against active forms of ITK kinase; type: biochemical; settings: [ITK]=10 nM, [ATP]=25, [Y6-Sox]=10 μM; read-out: ITK Inhibition
Chain of ITK (Q08881 whole entry): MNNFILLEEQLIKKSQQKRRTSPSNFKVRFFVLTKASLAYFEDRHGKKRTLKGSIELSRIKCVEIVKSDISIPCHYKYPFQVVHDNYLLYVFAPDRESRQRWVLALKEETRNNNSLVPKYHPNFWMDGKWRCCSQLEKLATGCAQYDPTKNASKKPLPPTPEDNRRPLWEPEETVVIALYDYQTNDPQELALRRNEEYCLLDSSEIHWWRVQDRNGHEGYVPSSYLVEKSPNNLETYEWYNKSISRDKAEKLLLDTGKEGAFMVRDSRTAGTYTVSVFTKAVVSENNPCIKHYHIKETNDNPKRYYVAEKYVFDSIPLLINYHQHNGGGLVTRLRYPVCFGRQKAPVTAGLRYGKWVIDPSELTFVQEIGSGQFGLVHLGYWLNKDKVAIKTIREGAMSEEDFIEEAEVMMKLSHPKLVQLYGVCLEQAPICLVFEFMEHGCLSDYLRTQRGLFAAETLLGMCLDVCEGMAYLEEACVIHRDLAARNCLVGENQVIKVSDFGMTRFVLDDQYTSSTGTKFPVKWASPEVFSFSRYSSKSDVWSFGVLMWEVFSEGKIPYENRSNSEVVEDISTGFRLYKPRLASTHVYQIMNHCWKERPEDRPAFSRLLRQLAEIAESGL
Procedure: [ITK]=10 nM, [ATP]=25 [Y6-Sox]=10 μM (ATP KMapp=33 μM).

[4] = biological target: EGFR-WT (Homo sapiens (Human), UniProt P00533); assay: Omnia assay for potency assessment against EGFR (WT); settings: read-out: EGFR (wild type inhibition); EGFR wild type
Chain of EGFR-WT (P00533 668-1210): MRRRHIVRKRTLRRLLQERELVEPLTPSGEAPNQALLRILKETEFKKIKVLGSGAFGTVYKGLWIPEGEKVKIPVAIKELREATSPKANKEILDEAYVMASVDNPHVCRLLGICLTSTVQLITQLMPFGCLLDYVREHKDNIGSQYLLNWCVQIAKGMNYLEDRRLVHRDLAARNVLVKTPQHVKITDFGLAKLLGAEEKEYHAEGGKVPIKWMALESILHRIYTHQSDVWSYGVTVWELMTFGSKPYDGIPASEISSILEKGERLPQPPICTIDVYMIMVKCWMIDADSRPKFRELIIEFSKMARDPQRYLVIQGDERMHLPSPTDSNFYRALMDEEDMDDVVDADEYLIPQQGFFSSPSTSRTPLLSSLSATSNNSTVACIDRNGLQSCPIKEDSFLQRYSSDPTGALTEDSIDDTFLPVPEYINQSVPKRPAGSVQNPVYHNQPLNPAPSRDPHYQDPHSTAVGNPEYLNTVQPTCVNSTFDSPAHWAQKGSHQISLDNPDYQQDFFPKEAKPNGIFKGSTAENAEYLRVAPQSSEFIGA

[5] = biological target: T1, BTK; assay: BTK Ramos cellular assay (PLCγ2 phosphorylation); type: cell-based; settings: Ramos cells, 1 hour compound, anti-IgM stimulation, p-PLCγ2; read-out: BTK Inhibition (IC50), BTK Ramos cellular inhibition
[6] = biological target: EGFR-T790M/L858R (Homo sapiens (Human), UniProt P00533, L858R/T790M); assay: Omnia assay for potency assessment against EGFR (T790M/L858R); settings: read-out: EGFR (T790M/L858R); EGFR mutant T790M/L858R
Chain of EGFR-T790M/L858R (P00533 25-1210 T790M/L858R): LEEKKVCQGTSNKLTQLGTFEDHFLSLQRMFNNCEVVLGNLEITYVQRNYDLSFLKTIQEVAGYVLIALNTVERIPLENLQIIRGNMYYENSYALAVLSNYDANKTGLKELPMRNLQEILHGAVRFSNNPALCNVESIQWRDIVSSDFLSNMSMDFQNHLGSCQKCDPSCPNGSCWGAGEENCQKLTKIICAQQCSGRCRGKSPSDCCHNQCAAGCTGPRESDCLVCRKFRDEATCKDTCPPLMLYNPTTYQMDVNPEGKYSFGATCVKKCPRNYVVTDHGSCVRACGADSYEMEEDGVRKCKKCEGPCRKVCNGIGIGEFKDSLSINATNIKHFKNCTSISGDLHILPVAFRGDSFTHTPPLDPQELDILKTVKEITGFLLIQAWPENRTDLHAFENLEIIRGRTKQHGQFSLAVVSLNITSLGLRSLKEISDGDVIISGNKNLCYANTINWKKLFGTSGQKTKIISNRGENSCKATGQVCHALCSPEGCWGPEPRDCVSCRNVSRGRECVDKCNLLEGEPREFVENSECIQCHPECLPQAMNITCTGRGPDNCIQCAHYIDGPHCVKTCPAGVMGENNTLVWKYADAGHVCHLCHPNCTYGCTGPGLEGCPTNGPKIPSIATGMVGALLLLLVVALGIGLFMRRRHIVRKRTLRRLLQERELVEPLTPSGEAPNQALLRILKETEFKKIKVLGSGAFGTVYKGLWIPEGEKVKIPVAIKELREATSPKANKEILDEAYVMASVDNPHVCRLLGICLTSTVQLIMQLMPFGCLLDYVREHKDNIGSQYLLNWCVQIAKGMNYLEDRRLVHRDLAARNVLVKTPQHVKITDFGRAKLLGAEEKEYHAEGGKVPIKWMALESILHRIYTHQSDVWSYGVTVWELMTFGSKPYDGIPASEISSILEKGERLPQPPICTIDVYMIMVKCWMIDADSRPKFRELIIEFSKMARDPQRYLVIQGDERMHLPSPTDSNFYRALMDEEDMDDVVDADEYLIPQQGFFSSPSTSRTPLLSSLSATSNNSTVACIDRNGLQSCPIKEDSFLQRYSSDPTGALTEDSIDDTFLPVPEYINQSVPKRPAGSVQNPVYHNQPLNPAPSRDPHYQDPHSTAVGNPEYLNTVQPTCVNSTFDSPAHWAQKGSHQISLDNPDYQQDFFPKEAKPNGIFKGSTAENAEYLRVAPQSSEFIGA

T1 sequence (Q06187 whole entry): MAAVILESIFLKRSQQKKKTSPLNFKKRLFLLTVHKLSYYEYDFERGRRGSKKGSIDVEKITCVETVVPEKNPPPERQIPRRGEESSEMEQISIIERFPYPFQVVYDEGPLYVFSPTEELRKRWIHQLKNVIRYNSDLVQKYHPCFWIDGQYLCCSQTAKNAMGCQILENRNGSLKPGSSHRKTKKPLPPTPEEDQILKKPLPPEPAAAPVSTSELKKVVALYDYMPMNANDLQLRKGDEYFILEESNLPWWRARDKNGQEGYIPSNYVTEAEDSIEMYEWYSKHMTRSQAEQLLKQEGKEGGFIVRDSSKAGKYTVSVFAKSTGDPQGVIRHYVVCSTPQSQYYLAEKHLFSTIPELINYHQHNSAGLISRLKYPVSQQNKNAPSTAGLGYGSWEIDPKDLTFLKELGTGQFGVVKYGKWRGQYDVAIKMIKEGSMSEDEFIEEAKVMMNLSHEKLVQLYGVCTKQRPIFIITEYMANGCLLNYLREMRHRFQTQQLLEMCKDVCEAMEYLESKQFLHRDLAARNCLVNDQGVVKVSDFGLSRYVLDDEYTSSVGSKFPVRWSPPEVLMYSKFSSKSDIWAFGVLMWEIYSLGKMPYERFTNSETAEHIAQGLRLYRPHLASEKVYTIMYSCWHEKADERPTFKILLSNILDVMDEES

SMILES | BTK Inhibition Type [1] | covalent modification of TEC kinase (Cys449, peptide GCLLNFLR) by mass spectrometry [2] | pIC50 [3] | pIC50 [4] | pIC50 [5] | pIC50 [6]
Cc1cccc(Nc2nc(Nc3cccc(NC(=O)/C=C/CN(C)C)c3)ncc2F)c1 [Compound I-4, (E)-4-(dimethylamino)-N-(3-(5-fluoro-4-(m-tolylamino)pyrimidin-2-ylamino)phenyl)but-2-enamide] | irreversible | reaction was complete; also recorded: covalent modification | 7.00 to 8.00 | > 8.00 | 7.00 to 8.00 | > 8.00
C=CC(=O)Nc1cccc(Nc2nc(Nc3ccccc3)ncc2C)c1 [Compound I-7, N-(3-(5-methyl-2-(phenylamino)pyrimidin-4-ylamino)phenyl) acrylamide] | irreversible | reaction was complete; also recorded: covalent modification | > 8.00 | > 8.00 | > 8.00 | > 8.00
